Results published in PubChem BioAssay (NCI).
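These data come from cells grown in 96-well plates and exposed to compound for 48 hours at five concentrations. TGI marks complete inhibition of growth.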

Columns and labels:
Assay in all cases: NCI anticancer screen, dose series, 48 h
[1] = tested on: CAKI-1 renal
[2] = tested on: HL-60(TB) leukemia
[3] = tested on: SK-MEL-28 melanoma
[4] = tested on: SF-268 CNS
[5] = tested on: SK-OV-3 ovarian
[6] = tested on: RPMI-8226 leukemia
[7] = tested on: DU-145 prostate
[8] = tested on: HCC-2998 colon
[9] = tested on: RXF 393 renal
[10] = tested on: A549 NSCLC
[11] = tested on: CCRF-CEM leukemia
[12] = tested on: NCI-H23 lung
[13] = tested on: HCT-15 colon
[14] = tested on: OVCAR-4 ovarian
[15] = tested on: SNB-75 CNS
[16] = tested on: ACHN renal
[17] = tested on: NCI-H460 lung
[18] = tested on: HT29 colon
[19] = tested on: M14 melanoma
[20] = tested on: UACC-257 melanoma
[21] = tested on: MALME-3M melanoma
[22] = tested on: SK-MEL-5 melanoma
[23] = tested on: SW-620 colon
[24] = tested on: 786-0 renal
[25] = tested on: UACC-62 melanoma
[26] = tested on: LOX IMVI melanoma
[27] = tested on: SN12C renal
[28] = tested on: UO-31 renal
[29] = tested on: MDA-N
[30] = tested on: SR leukemia
[31] = tested on: NCI-H522 lung
[32] = tested on: NCI/ADR-RES ovarian
[33] = tested on: PC-3 prostate
[34] = tested on: MDA-MB-435
[35] = tested on: MCF7 breast
[36] = tested on: HOP-92 NSCLC
[37] = tested on: KM12 colon
[38] = tested on: NCI-H226 lung
[39] = tested on: T-47D breast
[40] = tested on: TK-10 renal
[41] = tested on: COLO 205 colon
[42] = tested on: BT-549 breast
[43] = tested on: SF-295 CNS
[44] = tested on: OVCAR-8 ovarian
[45] = tested on: HOP-62 NSCLC
[46] = tested on: IGROV1 ovarian
[47] = tested on: MOLT-4 leukemia
[48] = tested on: MDA-MB-231 breast
[49] = tested on: SNB-19 CNS
[50] = tested on: K-562 leukemia
[51] = tested on: EKVX NSCLC
[52] = tested on: OVCAR-5 ovarian
[53] = tested on: A498 renal
[54] = tested on: U251 CNS
[55] = tested on: OVCAR-3 ovarian
[56] = tested on: SK-MEL-2 melanoma
[57] = tested on: SF-539 CNS
[58] = tested on: HCT-116 colon

Q: How did the TGI [1] turn out when CC(C)(C)C1=NC(=S)SC2=NC(=O)C3(NN21)c1ccccc1-c1ccccc13 was run?
A: > 10 µM

Q: And the TGI [2]?
A: > 10 µM

Q: And the TGI [3]?
A: > 10 µM

Q: What about the TGI [4] of the same compound?
A: > 10 µM

Q: And the TGI [5]?
A: > 10 µM

Q: And the TGI [6]?
A: > 10 µM

Q: What about the TGI [7] of the same compound?
A: > 10 µM

Q: What about the TGI [8] of the same compound?
A: > 10 µM

Q: And the TGI [9]?
A: > 10 µM

Q: And the TGI [10]?
A: > 10 µM

Q: What about the TGI [11] of the same compound?
A: > 10 µM

Q: What about the TGI [12] of the same compound?
A: > 10 µM

Q: What about the TGI [13] of the same compound?
A: > 10 µM

Q: And the TGI [14]?
A: > 10 µM

Q: And the TGI [15]?
A: > 10 µM

Q: And the TGI [16]?
A: > 10 µM

Q: And the TGI [17]?
A: > 10 µM

Q: And the TGI [18]?
A: > 10 µM

Q: What about the TGI [19] of the same compound?
A: > 10 µM

Q: What about the TGI [20] of the same compound?
A: > 10 µM

Q: And the TGI [21]?
A: > 10 µM

Q: What about the TGI [22] of the same compound?
A: > 10 µM

Q: What about the TGI [23] of the same compound?
A: > 10 µM

Q: What about the TGI [24] of the same compound?
A: > 10 µM

Q: And the TGI [25]?
A: > 10 µM

Q: And the TGI [26]?
A: > 10 µM

Q: And the TGI [27]?
A: > 10 µM

Q: What about the TGI [28] of the same compound?
A: > 10 µM

Q: And the TGI [29]?
A: > 10 µM

Q: What about the TGI [30] of the same compound?
A: > 10 µM

Q: And the TGI [31]?
A: > 10 µM

Q: What about the TGI [32] of the same compound?
A: > 10 µM

Q: And the TGI [33]?
A: > 10 µM

Q: And the TGI [34]?
A: > 10 µM

Q: And the TGI [35]?
A: > 10 µM

Q: And the TGI [36]?
A: > 10 µM

Q: What about the TGI [37] of the same compound?
A: > 10 µM

Q: And the TGI [38]?
A: > 10 µM

Q: What about the TGI [39] of the same compound?
A: > 10 µM

Q: What about the TGI [40] of the same compound?
A: > 10 µM

Q: What about the TGI [41] of the same compound?
A: > 10 µM

Q: What about the TGI [42] of the same compound?
A: > 10 µM

Q: What about the TGI [43] of the same compound?
A: > 10 µM

Q: And the TGI [44]?
A: > 10 µM

Q: And the TGI [45]?
A: > 10 µM

Q: What about the TGI [46] of the same compound?
A: > 10 µM

Q: And the TGI [47]?
A: > 10 µM

Q: What about the TGI [48] of the same compound?
A: > 10 µM

Q: What about the TGI [49] of the same compound?
A: > 10 µM

Q: What about the TGI [50] of the same compound?
A: > 10 µM

Q: What about the TGI [51] of the same compound?
A: > 10 µM

Q: Cc1ccc(NC(=S)C#N)cc1Cl was tested. Which TGI [1] did it give?
A: > 100 µM

Q: What about the TGI [52] of the same compound?
A: 85.7 µM

Q: And the TGI [53]?
A: 73.7 µM

Q: And the TGI [3]?
A: > 100 µM

Q: What about the TGI [4] of the same compound?
A: > 100 µM

Q: And the TGI [5]?
A: > 100 µM

Q: What about the TGI [6] of the same compound?
A: 56.2 µM

Q: What about the TGI [7] of the same compound?
A: > 100 µM

Q: What about the TGI [8] of the same compound?
A: 52.8 µM

Q: And the TGI [9]?
A: 97.8 µM

Q: What about the TGI [10] of the same compound?
A: > 100 µM

Q: And the TGI [11]?
A: 80.3 µM

Q: And the TGI [12]?
A: > 100 µM

Q: And the TGI [13]?
A: > 100 µM

Q: And the TGI [15]?
A: 75 µM

Q: What about the TGI [16] of the same compound?
A: > 100 µM

Q: And the TGI [18]?
A: > 100 µM

Q: And the TGI [19]?
A: > 100 µM

Q: And the TGI [20]?
A: > 100 µM

Q: And the TGI [21]?
A: > 100 µM

Q: What about the TGI [22] of the same compound?
A: > 100 µM

Q: What about the TGI [23] of the same compound?
A: > 100 µM

Q: What about the TGI [54] of the same compound?
A: > 100 µM

Q: What about the TGI [24] of the same compound?
A: > 100 µM

Q: And the TGI [25]?
A: > 100 µM

Q: And the TGI [26]?
A: > 100 µM

Q: What about the TGI [27] of the same compound?
A: > 100 µM

Q: And the TGI [29]?
A: > 100 µM

Q: What about the TGI [30] of the same compound?
A: > 100 µM

Q: And the TGI [32]?
A: > 100 µM

Q: And the TGI [33]?
A: > 100 µM

Q: What about the TGI [34] of the same compound?
A: > 100 µM

Q: What about the TGI [35] of the same compound?
A: > 100 µM

Q: What about the TGI [55] of the same compound?
A: 53.8 µM

Q: And the TGI [36]?
A: 62.8 µM

Q: And the TGI [37]?
A: > 100 µM

Q: And the TGI [38]?
A: > 100 µM

Q: And the TGI [56]?
A: > 100 µM

Q: And the TGI [39]?
A: > 100 µM

Q: And the TGI [57]?
A: 70.5 µM

Q: What about the TGI [40] of the same compound?
A: > 100 µM

Q: And the TGI [41]?
A: 65.2 µM

Q: And the TGI [42]?
A: > 100 µM

Q: What about the TGI [43] of the same compound?
A: > 100 µM

Q: What about the TGI [44] of the same compound?
A: > 100 µM

Q: And the TGI [58]?
A: > 100 µM

Q: And the TGI [45]?
A: > 100 µM

Q: And the TGI [46]?
A: 48.4 µM

Q: And the TGI [47]?
A: > 100 µM

Q: What about the TGI [48] of the same compound?
A: > 100 µM

Q: And the TGI [50]?
A: > 100 µM

Q: And the TGI [51]?
A: > 100 µM

Q: N#Cc1ccsc1Nc1ccccc1[N+](=O)[O-] was tested. Which TGI [1] did it give?
A: > 100 µM

Q: What about the TGI [52] of the same compound?
A: > 100 µM

Q: And the TGI [53]?
A: > 100 µM

Q: What about the TGI [3] of the same compound?
A: > 100 µM

Q: What about the TGI [4] of the same compound?
A: > 100 µM

Q: And the TGI [5]?
A: > 100 µM

Q: And the TGI [6]?
A: > 100 µM

Q: What about the TGI [7] of the same compound?
A: > 100 µM

Q: What about the TGI [8] of the same compound?
A: > 100 µM

Q: What about the TGI [9] of the same compound?
A: > 100 µM

Q: And the TGI [10]?
A: > 100 µM

Q: And the TGI [11]?
A: > 100 µM

Q: And the TGI [12]?
A: > 100 µM

Q: What about the TGI [13] of the same compound?
A: > 100 µM

Q: And the TGI [14]?
A: > 100 µM

Q: What about the TGI [15] of the same compound?
A: > 100 µM

Q: And the TGI [16]?
A: > 100 µM

Q: What about the TGI [17] of the same compound?
A: > 100 µM

Q: And the TGI [19]?
A: > 100 µM

Q: And the TGI [20]?
A: > 100 µM

Q: What about the TGI [21] of the same compound?
A: > 100 µM

Q: And the TGI [23]?
A: > 100 µM

Q: And the TGI [54]?
A: > 100 µM

Q: And the TGI [24]?
A: > 100 µM

Q: What about the TGI [25] of the same compound?
A: > 100 µM

Q: What about the TGI [27] of the same compound?
A: > 100 µM

Q: And the TGI [28]?
A: > 100 µM

Q: And the TGI [29]?
A: > 100 µM

Q: And the TGI [30]?
A: > 100 µM

Q: What about the TGI [31] of the same compound?
A: > 100 µM

Q: And the TGI [32]?
A: > 100 µM

Q: And the TGI [33]?
A: > 100 µM

Q: And the TGI [34]?
A: > 100 µM

Q: What about the TGI [35] of the same compound?
A: > 100 µM

Q: And the TGI [55]?
A: > 100 µM

Q: And the TGI [36]?
A: > 100 µM

Q: And the TGI [37]?
A: > 100 µM

Q: And the TGI [38]?
A: > 100 µM

Q: What about the TGI [39] of the same compound?
A: > 100 µM

Q: And the TGI [57]?
A: > 100 µM

Q: And the TGI [41]?
A: > 100 µM

Q: And the TGI [42]?
A: > 100 µM

Q: What about the TGI [43] of the same compound?
A: > 100 µM

Q: And the TGI [44]?
A: > 100 µM

Q: And the TGI [58]?
A: > 100 µM

Q: And the TGI [45]?
A: > 100 µM

Q: And the TGI [46]?
A: > 100 µM

Q: What about the TGI [47] of the same compound?
A: > 100 µM

Q: And the TGI [48]?
A: > 100 µM

Q: And the TGI [49]?
A: > 100 µM

Q: What about the TGI [50] of the same compound?
A: > 100 µM

Q: What about the TGI [51] of the same compound?
A: > 100 µM
